Series [1] concerns the target T1, human androgen receptor (hAR) (Homo sapiens, UniProt P10275).
T1 construct: expressed in transfected cells
T1 sequence (P10275 1-920): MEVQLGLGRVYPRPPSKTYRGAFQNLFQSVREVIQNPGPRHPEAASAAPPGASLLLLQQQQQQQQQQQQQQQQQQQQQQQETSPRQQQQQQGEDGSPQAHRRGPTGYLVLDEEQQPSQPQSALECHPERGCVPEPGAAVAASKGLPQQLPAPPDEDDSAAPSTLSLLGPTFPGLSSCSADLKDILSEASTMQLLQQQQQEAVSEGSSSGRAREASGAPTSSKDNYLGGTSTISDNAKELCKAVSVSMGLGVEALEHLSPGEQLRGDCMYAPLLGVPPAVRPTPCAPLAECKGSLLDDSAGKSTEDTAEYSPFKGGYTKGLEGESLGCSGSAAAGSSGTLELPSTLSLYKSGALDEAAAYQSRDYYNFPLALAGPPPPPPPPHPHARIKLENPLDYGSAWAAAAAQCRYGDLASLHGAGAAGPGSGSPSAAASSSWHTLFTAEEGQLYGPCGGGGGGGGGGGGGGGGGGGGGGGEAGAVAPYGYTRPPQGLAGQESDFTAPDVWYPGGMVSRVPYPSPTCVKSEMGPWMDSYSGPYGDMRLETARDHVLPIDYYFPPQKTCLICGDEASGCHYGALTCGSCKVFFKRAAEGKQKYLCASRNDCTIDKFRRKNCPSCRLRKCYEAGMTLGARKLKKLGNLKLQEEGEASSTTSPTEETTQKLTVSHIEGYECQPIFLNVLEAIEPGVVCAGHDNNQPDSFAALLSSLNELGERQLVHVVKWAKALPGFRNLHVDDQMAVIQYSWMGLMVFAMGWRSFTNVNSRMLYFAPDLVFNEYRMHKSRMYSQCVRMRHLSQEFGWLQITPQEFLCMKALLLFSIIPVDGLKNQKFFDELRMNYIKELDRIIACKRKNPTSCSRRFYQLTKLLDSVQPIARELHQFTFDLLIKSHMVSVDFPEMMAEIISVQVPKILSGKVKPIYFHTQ
The series can be described thus: Functional response (transactivation) test in HALP2 cells (HeLa stably expressing hAR and ARE-luciferase reporter). The series is classed as cell-based. To be noted: HALP2 cells; for Emax: HeLa, maximal activation by the compound compared with DHT alone (100%), read-out: % effect relative to DHT (100%); for EC50: agonism: concentration inducing 50% of the maximum agonistic effect of the tested compound, 24 hours, read-out: EC50. In general terms: In a reporter assay the amount or activity of a reporter protein is the signal.

The nature of series [2]: Determination of absolute bioavailability (restricted PK profile, oral and intravenous). The series is classed as in vivo. To be noted: male, Sprague-Dawley, rat, plasma, po, 10 mg/kg, absolute bioavailability (F), male Sprague Dawley rats, oral 10 mg/kg AUC(0-6 h) vs intravenous 3 mg/kg AUC(0-3 h); read-out: Bioavailability. Here is the method:
To screen rapidly imidazolidines derivatives based on their absolute bioavailabity, restricted pharmacokinetic profile with only fours sampling time points after oral and intravenous route is investigated in Sprague Dawley rats as follows: each test compound is dosed orally (10 mg/kg) and intravenously (3 mg/kg) to groups of 3 male Sprague Dawley rats. Oral doses are administered as solution in EtOH/PEG400/H2O (1/79/20; v/v) by esophageal gavage (2 mg/mL; 5 mL/kg) and intravenous dose is given as solution in DMSO/PEG400/H2O (1/65/34; v/v) as a bolus in the tail vein (3 mg/mL; 1 mL/kg). Before oral dosing, animals are deprived of food (water ad libitum) for at least 16 hours before the start of the study and 6 hours after administration.
Blood is collected at the retro-orbital sinus into polypropylene tubes (Li-heparinate) at +4° C. at the following sampling-times: 0.083, 0.25, 1 and 3 h after intravenous injection and 0.25, 1, 3 and 6 hours after oral dosing. Three (3) animals are sampled per time-point; each animal being sampled four times. After centrifugation at 5000 rpm for 10 min at +4° C., plasma is collected into polypropylene tubes and kept frozen at −20° C. pending assays. Plasma samples are assayed by a LC-MS/MS method with a lower limit of quantification of 1 to 10 ng/mL depending on the compound (volume of plasma: 100 μL).
A LC-MS/MS method for quantification in heparinized plasma was developed for each test compound. Sample preparation consists of a precipitation of plasma proteins with methanol and filtration by centrifugation of supernatant on Captiva deep-well 96 0.2 μm filter plates. Water was added to methanol supernatant phase prior to analysis by liquid chromatography (Pursuit 5 C18 20×2.0 mm VARIAN, 2 μL loop, gradient Water/Methanol (90/10 to 0/100) over 1.7 min) with turboionspray tandem mass spectrometry (API4000) in negative mode using multiple reaction monitoring. The method includes 8 standard and 3 quality control levels with lower limit of quantification corresponding to first standard level.
Exposures are determined using a non compartmental model (WinNonLin 2.1) and the absolute bioavailability (F) is calculated as follows: [AUC(0-6 h) oral*3 mg/kg]/AUC(0-3 h) IV 10 mg/kg] and expressed in percentage.

With `CN1C(=O)N(c2ccc(C#N)c(C(F)(F)F)c2)C(=O)C1(CO)c1ccc(Cl)cc1` (stereo not drawn) [Example 7, 4-[4-(4-Chlorophenyl)-2,5-dioxo-4-hydroxymethyl-3-methyl-imidazolidin-1-yl)-2-trifluoromethylbenzonitrile], in series [1], the Emax lay in the range of 21 to 40% and the concentration giving a half-maximal response (EC50) (as a rule, the midpoint of the concentration-response curve) lay in the range of 101 to 500 nM. For the same compound, the bioavailability (usually dose-corrected exposure relative to a reference, in per cent) in series [2] was greater than 90%.

As to `CN1C(=O)N(c2ccc(C#N)c(C(F)(F)F)c2)C(=O)[C@@]1(CO)c1ccccc1` [Example 10, (S)-4-[2,5-Dioxo-4-(hydroxymethyl)-3-methyl-4-phenylimidazolidin-1-yl]-2-trifluoromethylbenzonitrile], in series [1], the Emax lay in the range of 21 to 40% and the EC50 was 11 to 100 nM. For the same compound, the bioavailability in series [2] is greater than 90%.

As for `CCN1C(=O)N(c2ccc(C#N)c(C(F)(F)F)c2)C(=O)C1(CO)c1ccccc1` (stereo not drawn) [Example 12, 4-[2,5-Dioxo-3-ethyl-4-(hydroxymethyl)-4-phenylimidazolidin-1-yl]-2-trifluoromethylbenzonitrile], in series [1], the Emax is 21 to 40% and the EC50 was in the range of 0.01 to 10 nM. Besides, in series [2], the bioavailability was in the range of 50 to 90%.

Values taken from patent publication US8383608B2, “Imidazolidine compounds as androgen receptor modulators” (Dart Therapeutics LLC, priority 2008, dated 2013).
